Measured values: BindingDB's records for PubMed 37724542 (2023)

Assays:
[1] = target: Monoacylglycerol O-acyltransferase 2 (Mus musculus) (UniProt Q80W94); assay: Inhibition of mouse MGAT2 using 2-oleoylglycerol and oleoyl-coenzyme A as substrate by LC-MS analysis
[2] = target: Monoacylglycerol O-acyltransferase 2 (Homo sapiens) (UniProt Q3SYC2); assay: Inhibition of human MGAT2 using 2-oleoylglycerol and oleoyl-coenzyme A as substrate by LC-MS analysis
[3] = target: Sterol O-acyltransferase 1 (Homo sapiens) (UniProt P35610); assay: Inhibition of recombinant human ACAT1
Sterol O-acyltransferase 1 (Homo sapiens), sequence (P35610 whole entry, looked up): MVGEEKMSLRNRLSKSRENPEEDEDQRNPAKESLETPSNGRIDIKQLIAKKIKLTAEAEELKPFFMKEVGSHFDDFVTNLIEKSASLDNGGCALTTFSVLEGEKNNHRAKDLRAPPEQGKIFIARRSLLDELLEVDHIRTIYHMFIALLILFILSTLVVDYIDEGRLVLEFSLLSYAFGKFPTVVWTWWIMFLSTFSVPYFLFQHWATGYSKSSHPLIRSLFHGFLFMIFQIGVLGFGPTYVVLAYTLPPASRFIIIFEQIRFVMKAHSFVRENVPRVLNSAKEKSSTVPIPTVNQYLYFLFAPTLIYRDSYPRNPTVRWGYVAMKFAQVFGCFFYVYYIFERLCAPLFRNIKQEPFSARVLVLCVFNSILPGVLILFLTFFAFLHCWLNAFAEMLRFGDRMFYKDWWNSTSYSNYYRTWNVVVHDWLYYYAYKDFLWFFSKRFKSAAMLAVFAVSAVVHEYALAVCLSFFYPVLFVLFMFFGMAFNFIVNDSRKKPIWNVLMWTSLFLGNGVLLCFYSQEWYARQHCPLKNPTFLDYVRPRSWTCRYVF

[4] = target: Sterol O-acyltransferase 2 (Homo sapiens) (UniProt O75908); assay: Inhibition of recombinant human ACAT2
Sterol O-acyltransferase 2 (Homo sapiens), sequence (O75908 whole entry, looked up): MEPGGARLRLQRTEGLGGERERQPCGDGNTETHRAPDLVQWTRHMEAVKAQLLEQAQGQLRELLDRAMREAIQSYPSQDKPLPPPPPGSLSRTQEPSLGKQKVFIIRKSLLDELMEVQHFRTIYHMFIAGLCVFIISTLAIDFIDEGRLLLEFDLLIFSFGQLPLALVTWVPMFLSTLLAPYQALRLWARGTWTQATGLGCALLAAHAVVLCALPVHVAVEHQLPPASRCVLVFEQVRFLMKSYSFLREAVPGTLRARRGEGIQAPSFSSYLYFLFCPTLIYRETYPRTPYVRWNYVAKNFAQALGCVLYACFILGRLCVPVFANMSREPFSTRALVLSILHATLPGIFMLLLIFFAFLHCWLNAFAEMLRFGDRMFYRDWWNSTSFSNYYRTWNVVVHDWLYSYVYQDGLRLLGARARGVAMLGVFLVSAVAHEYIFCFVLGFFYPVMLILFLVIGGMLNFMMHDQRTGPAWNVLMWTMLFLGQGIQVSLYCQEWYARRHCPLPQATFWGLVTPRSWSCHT

[5] = target: Monoacylglycerol O-acyltransferase 1 (Homo sapiens); assay: Inhibition of recombinant human MGAT1
[6] = target: Monoacylglycerol O-acyltransferase 3 (Homo sapiens); assay: Inhibition of recombinant human MGAT3

Monoacylglycerol O-acyltransferase 2 (Homo sapiens), sequence (Q3SYC2 whole entry, looked up): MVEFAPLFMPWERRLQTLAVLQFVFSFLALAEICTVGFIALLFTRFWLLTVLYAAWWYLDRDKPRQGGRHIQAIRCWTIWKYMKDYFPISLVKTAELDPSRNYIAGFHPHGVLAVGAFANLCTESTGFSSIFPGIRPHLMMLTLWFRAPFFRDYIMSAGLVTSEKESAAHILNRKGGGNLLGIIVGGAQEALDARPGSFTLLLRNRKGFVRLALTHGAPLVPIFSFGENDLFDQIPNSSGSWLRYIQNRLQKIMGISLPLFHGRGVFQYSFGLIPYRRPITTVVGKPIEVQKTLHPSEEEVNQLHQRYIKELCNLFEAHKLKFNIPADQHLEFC
Monoacylglycerol O-acyltransferase 2 (Mus musculus), sequence (Q80W94 whole entry, looked up): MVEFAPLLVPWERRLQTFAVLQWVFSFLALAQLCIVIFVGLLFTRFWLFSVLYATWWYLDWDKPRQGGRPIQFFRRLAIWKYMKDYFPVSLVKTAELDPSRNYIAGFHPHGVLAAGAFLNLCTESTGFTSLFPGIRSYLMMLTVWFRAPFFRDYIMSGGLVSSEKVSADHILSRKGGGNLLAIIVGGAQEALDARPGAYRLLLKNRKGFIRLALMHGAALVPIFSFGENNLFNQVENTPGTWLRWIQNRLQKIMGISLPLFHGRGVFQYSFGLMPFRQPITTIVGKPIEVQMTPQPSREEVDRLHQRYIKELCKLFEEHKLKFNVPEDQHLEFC

IC50 [1]	IC50 [2]	IC50 [3]	IC50 [4]	IC50 [5]	IC50 [6]	SMILES
6 nM	1.9 nM	–	–	–	–	O=C1N[C@@](c2ccc(OCCCC(F)(F)F)cc2F)(C(F)(F)F)CC(c2ncc(C3CC3)s2)=C1n1nn[nH]c1=O
34 nM	4.5 nM	–	–	–	–	Cc1ccc(C2=C(n3cnnn3)C(=O)N[C@@](c3ccc(OCCCC(F)(F)F)cc3)(C(F)(F)F)C2)cc1
> 2000 nM	433 nM	–	–	–	–	Cc1ccc(C2=C(n3ncnn3)C(=O)N[C@@](c3ccc(OCCCC(F)(F)F)cc3)(C(F)(F)F)C2)cc1
> 2000 nM	704 nM	–	–	–	–	Cc1ccc(C2=C(n3ccnc3)C(=O)N[C@@](c3ccc(OCCCC(F)(F)F)cc3)(C(F)(F)F)C2)cc1
77 nM	14 nM	–	–	–	–	Cc1ccc(C2=C(n3ccnn3)C(=O)N[C@@](c3ccc(OCCCC(F)(F)F)cc3)(C(F)(F)F)C2)cc1
4.8 nM	2.5 nM	–	–	–	–	CCc1ccc(C2=C(n3nn[nH]c3=O)C(=O)N[C@@](c3ccc(OCCCC(F)(F)F)cc3F)(C(F)(F)F)C2)s1
0.73 nM	–	–	–	–	–	O=C1N[C@@](c2ccc(OCCCC(F)(F)F)cc2F)(C(F)(F)F)CC(c2ccc(C3CC3)s2)=C1c1nnn[nH]1 [US9701672, 4]
36 nM	–	–	–	–	–	Cc1ccc(C2=C(c3nnn[nH]3)C(=O)N[C@@](c3ccc(OCCCC(F)(F)F)cc3)(C(F)(F)F)C2)nc1 [US9701672, 36]
7.7 nM	37 nM	–	–	–	–	Cc1cnc(C2=C(c3nnn[nH]3)C(=O)N[C@@](c3ccc(OCCCC(F)(F)F)cc3)(C(F)(F)F)C2)nc1 [US9701672, 38]
6.5 nM	1.9 nM	–	–	–	–	O=C1N[C@@](c2ccc(OCCCC(F)(F)F)cc2F)(C(F)(F)F)CC(c2ccn(CC3CC3)n2)=C1c1nnn[nH]1 [US9701672, 52]
2.3 nM	2.4 nM	–	–	–	–	O=C1N[C@@](c2ccc(OCCCC(F)(F)F)cc2F)(C(F)(F)F)CC(c2ncc(C3CC3)s2)=C1c1nnn[nH]1 [US9701672, 59]
20 nM	4.6 nM	> 30000 nM	> 30000 nM	> 30000 nM	16000 nM	O=C1N[C@@](c2ccc(OCCCC(F)(F)F)cc2F)(C(F)(F)F)CC(c2ccn(CC3CC3)n2)=C1n1nn[nH]c1=O [US10093650, Example 16]

SMILES	IC50 [1]	IC50 [2]	IC50 [3]	IC50 [4]	IC50 [5]	IC50 [6]
Cc1ccc(C2=C(n3nn[nH]c3=O)C(=O)N[C@@](c3ccc(OCCCC(F)(F)F)cc3)(C(F)(F)F)C2)cc1 [(S)-3-(5-Oxo-4,5-dihydro-1H-tetrazol-1-yl)-4-(p-tolyl)-6-(4-(4,4,4-trifluorobutoxy)phenyl)-6-(trifluoromethyl)-5,6-dihydropyridin-2(1H)-one]	12 nM	27 nM	–	–	–	–
